{"source": "ChEMBL document CHEMBL5653631", "about": "“A Potent and Selective ULK1 Inhibitor Suppresses Autophagy and Sensitizes Cancer Cells to Nutrient Stress” (iScience, 2018)", "key": {"[1]": {"target": "T1, Serine/threonine-protein kinase Chk1 (Homo sapiens) (UniProt O14757)", "T1 sequence (whole entry)": "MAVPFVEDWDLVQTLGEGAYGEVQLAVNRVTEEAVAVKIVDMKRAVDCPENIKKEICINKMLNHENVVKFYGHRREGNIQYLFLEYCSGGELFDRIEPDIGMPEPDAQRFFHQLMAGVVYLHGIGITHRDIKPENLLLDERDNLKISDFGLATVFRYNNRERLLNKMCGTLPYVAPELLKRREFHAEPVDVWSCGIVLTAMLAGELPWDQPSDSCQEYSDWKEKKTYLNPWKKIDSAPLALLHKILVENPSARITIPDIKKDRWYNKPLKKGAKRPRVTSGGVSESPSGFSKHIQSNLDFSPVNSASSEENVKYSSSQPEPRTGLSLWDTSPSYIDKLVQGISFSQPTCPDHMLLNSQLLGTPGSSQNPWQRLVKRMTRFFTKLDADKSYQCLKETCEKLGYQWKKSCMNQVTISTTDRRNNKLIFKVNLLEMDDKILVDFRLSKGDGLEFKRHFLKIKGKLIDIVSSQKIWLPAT", "assay": "Inhibition of human recombinant CHK1 at 40 nM in presence of ATP by radiometric assay relative to control"}, "[2]": {"target": "Serine/threonine-protein kinase MRCK alpha (Homo sapiens) (UniProt Q5VT25)", "sequence (Q5VT25 whole entry)": "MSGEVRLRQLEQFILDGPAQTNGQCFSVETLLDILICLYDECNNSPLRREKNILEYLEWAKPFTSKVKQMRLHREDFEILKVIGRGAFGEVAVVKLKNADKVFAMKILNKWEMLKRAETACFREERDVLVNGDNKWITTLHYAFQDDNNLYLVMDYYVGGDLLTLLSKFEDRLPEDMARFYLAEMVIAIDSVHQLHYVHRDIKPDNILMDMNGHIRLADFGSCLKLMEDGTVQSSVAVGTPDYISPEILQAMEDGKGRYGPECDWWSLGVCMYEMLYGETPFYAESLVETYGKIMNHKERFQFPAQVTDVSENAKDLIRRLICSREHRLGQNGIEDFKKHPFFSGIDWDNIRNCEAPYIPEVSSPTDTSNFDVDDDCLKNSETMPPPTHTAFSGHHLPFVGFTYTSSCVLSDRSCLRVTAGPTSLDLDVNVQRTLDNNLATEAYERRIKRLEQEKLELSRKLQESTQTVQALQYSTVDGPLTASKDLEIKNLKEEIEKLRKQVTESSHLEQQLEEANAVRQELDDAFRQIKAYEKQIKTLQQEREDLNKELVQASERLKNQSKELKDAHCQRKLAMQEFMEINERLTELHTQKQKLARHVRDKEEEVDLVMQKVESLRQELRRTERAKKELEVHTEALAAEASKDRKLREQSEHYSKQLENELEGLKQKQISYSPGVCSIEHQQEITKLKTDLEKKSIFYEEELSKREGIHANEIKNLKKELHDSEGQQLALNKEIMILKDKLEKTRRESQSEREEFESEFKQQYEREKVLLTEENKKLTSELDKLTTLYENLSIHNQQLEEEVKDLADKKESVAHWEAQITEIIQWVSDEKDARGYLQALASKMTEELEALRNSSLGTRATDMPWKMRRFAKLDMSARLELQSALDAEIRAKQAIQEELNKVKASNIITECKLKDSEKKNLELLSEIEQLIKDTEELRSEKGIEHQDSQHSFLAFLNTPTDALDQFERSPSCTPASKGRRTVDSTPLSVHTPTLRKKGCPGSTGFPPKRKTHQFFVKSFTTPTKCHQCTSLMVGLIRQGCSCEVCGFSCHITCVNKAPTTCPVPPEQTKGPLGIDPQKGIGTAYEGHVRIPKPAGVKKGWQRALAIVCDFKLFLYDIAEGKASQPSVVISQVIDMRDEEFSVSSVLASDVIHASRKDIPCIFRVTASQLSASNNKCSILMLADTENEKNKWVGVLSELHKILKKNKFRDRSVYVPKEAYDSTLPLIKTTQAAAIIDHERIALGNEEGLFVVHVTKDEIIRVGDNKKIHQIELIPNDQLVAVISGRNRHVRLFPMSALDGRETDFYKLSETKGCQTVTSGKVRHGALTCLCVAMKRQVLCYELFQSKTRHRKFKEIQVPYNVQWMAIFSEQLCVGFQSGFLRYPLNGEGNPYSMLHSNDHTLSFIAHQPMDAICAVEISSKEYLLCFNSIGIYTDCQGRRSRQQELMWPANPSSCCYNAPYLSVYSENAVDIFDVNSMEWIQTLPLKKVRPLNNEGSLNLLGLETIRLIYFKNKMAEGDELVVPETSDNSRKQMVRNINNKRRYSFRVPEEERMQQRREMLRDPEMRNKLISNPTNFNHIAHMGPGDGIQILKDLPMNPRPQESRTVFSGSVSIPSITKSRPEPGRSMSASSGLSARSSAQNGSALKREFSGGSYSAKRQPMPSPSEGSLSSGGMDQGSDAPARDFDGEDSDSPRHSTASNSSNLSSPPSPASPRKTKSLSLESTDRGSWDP", "assay": "Inhibition of human recombinant MRCKa at 40 nM related to control ULK1"}, "[3]": {"target": "T2, Serine/threonine-protein kinase 17B (Homo sapiens) (UniProt O94768)", "T2 sequence (whole entry)": "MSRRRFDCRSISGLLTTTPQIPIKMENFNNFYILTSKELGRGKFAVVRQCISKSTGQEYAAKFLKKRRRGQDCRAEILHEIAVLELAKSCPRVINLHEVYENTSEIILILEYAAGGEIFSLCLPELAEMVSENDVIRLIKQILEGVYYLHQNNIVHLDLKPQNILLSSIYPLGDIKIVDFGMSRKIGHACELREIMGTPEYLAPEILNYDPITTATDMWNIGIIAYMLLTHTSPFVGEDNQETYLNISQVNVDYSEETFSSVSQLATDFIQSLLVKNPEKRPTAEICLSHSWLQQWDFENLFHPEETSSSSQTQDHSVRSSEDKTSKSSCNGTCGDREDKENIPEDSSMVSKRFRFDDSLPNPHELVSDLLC", "assay": "Inhibition of human recombinant DRAK2 at 15 nM related to control ULK1"}, "[4]": {"target": "Serine/threonine-protein kinase PLK2 (Homo sapiens) (UniProt Q9NYY3)", "sequence (Q9NYY3 whole entry, looked up)": "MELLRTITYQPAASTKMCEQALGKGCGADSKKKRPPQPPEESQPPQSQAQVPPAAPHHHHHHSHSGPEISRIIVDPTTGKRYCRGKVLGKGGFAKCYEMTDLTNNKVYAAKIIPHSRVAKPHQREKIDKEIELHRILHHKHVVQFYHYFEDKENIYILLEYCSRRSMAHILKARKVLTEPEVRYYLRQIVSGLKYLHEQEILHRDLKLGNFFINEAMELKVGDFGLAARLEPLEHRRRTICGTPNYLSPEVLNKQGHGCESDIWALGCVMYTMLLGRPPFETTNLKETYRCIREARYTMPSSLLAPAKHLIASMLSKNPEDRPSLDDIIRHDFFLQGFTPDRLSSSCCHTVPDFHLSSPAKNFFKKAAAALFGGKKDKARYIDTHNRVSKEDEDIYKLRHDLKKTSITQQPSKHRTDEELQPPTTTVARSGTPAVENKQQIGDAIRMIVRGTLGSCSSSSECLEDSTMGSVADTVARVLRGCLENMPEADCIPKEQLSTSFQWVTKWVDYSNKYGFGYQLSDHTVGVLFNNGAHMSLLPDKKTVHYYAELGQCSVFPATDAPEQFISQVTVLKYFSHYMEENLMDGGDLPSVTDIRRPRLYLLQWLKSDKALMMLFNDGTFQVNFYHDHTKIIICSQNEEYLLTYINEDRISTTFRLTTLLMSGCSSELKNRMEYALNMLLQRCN", "assay": "Inhibition of human recombinant PLK2 at 15 nM related to control ULK1"}, "[5]": {"target": "T3, Ephrin type-B receptor 2 (Homo sapiens) (UniProt P29323)", "T3 sequence (whole entry)": "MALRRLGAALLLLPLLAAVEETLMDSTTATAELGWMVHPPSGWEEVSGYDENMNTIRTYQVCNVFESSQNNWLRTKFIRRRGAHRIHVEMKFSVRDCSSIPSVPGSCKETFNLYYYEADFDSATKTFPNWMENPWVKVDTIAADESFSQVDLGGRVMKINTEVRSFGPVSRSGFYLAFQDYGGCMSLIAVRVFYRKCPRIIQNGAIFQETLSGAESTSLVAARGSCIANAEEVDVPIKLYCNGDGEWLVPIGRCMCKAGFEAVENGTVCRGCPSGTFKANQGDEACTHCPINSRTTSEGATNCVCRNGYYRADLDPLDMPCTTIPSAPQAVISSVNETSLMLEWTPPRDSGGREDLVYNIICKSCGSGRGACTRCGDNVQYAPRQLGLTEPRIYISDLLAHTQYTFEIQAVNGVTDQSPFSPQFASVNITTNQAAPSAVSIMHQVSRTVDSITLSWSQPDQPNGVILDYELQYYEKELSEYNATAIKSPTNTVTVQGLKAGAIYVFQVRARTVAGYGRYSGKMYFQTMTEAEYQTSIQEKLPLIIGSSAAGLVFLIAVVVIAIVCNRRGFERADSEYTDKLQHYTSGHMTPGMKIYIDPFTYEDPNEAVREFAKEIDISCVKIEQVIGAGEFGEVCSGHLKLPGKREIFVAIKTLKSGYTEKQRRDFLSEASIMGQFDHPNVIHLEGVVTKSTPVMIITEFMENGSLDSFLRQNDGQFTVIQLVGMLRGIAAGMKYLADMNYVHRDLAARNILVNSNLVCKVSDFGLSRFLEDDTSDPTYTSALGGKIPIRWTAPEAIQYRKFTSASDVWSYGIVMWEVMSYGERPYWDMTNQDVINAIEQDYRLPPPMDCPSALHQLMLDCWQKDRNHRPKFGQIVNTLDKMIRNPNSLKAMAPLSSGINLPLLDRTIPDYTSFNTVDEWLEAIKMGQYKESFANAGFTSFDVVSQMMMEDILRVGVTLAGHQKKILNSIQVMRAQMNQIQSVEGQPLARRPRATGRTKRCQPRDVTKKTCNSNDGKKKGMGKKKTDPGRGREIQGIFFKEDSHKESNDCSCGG", "assay": "Inhibition of human recombinant EphB2 at 15 nM related to control ULK1"}, "[6]": {"target": "Dual specificity protein kinase CLK3 (Homo sapiens) (UniProt P49761)", "assay": "Inhibition of human recombinant CLK3 at 15 nM related to control ULK1"}, "[7]": {"target": "Ephrin type-A receptor 7 (Homo sapiens) (UniProt Q15375)", "sequence (Q15375 28-998 limits assumed)": "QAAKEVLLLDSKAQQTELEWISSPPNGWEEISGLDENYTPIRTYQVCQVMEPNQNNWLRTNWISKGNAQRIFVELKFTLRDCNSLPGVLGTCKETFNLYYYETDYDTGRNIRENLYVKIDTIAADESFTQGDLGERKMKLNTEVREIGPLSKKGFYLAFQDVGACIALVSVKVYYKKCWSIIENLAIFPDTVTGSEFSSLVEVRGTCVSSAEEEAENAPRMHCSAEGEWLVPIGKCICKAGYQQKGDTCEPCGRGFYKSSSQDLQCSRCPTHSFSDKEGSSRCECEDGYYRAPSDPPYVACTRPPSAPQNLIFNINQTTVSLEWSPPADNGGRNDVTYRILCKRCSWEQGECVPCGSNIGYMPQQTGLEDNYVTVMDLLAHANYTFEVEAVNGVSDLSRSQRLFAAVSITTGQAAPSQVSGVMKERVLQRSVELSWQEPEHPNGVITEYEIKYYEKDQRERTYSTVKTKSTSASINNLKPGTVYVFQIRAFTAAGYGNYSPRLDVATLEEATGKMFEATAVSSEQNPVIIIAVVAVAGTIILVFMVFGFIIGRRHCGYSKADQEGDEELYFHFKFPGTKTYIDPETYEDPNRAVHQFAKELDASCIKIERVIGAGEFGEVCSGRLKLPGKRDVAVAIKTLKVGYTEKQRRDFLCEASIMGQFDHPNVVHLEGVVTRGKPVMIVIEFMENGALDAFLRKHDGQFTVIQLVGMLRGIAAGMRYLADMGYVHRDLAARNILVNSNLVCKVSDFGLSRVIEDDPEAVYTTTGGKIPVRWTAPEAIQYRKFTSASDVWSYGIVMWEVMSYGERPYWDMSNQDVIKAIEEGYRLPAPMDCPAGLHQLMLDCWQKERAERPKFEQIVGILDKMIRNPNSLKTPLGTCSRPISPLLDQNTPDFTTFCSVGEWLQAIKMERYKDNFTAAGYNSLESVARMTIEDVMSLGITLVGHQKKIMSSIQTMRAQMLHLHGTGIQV", "assay": "Inhibition of human recombinant EphA7 at 15 nM related to control ULK1"}, "[8]": {"target": "Tyrosine-protein kinase Fes/Fps (Homo sapiens) (UniProt P07332)", "sequence (P07332 whole entry)": "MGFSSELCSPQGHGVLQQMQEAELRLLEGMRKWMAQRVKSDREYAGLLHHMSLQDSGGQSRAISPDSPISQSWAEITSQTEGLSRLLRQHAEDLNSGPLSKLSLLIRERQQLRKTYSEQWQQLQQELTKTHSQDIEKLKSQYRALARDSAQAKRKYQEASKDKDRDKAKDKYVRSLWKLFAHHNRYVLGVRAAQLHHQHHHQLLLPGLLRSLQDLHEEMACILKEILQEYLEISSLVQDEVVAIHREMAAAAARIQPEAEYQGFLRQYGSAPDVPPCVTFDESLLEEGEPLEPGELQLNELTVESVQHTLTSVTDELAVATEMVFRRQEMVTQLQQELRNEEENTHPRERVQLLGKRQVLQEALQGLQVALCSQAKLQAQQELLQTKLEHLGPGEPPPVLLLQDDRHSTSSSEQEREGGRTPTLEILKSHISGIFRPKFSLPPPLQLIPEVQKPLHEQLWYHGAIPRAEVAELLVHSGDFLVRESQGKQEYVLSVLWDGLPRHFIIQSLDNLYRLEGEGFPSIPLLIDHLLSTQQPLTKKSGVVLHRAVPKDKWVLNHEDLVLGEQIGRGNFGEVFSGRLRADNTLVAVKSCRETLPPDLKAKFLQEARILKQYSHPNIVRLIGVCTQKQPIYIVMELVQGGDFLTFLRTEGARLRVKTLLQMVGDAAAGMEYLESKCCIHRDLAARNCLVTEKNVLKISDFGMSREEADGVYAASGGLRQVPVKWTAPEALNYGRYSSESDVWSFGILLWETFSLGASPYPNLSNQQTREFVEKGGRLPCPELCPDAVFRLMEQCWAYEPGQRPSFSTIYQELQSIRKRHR", "assay": "Inhibition of human recombinant FES at 15 nM related to control ULK1"}, "[9]": {"target": "Serine/threonine-protein kinase PAK 4 (Homo sapiens) (UniProt O96013)", "sequence (O96013 whole entry, looked up)": "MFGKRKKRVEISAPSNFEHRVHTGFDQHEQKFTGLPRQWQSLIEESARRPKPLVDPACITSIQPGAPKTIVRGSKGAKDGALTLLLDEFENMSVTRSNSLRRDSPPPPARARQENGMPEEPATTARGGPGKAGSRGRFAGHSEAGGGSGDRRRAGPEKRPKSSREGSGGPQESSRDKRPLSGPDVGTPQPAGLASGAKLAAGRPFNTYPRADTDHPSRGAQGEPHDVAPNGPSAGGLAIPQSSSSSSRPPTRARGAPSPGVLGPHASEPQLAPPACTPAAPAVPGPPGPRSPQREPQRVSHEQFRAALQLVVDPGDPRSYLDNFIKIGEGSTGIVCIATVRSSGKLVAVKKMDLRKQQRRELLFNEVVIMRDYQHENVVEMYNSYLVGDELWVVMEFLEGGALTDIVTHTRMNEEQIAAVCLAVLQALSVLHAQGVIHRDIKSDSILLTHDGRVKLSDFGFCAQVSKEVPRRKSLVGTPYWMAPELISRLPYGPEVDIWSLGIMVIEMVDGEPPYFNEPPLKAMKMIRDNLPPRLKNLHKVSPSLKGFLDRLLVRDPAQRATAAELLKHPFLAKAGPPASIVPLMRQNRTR", "assay": "Inhibition of human recombinant PAK4 at 500 nM related to control ULK1"}}, "data": [{"smiles": "O=C(N[C@@H](C1CC1)C(F)(F)F)c1cc(-c2cnn3cc(-c4ccc(F)cc4)cnc23)cs1", "values": [{"measurement": "inhibition", "setting": "[1]", "value": 0, "unit": "%"}, {"measurement": "fold change (FC)", "setting": "[2]", "value": 0.03}]}, {"smiles": "CC(C)[C@H](NC(=O)c1cc(-c2cnn3cc(-c4ccc(OCCN5CCCCC5)cc4)cnc23)cs1)C(F)(F)F", "values": [{"measurement": "fold change (FC)", "setting": "[3]", "value": 0.78}, {"measurement": "fold change (FC)", "setting": "[4]", "value": 0.05}, {"measurement": "fold change (FC)", "setting": "[5]", "value": 0.08}, {"measurement": "fold change (FC)", "setting": "[6]", "value": 0.01}, {"measurement": "fold change (FC)", "setting": "[7]", "value": 0}, {"measurement": "fold change (FC)", "setting": "[8]", "value": 0}]}, {"smiles": "CNC(=O)c1ccccc1Oc1nc(Nc2cc(OC)c(OC)c(OC)c2)ncc1Br", "values": [{"measurement": "fold change (FC)", "setting": "[9]", "value": 0.55}]}]}
